Measurements published in the NIST ThermoML archive (doi:10.1021/acs.jced.6b00959).
± gives the expanded uncertainty stated by the source.

Assay: molar heat capacity at constant pressure
Details: Liquid, Flow calorimetry

C=C(F)C(F)(F)F [2,3,3,3-tetrafluoro-1-propene]
Details	molar heat capacity at constant pressure [J/K/mol]
303.53 K, 2030 kPa	157.15 ± 1.1
303.55 K, 2530 kPa	156.01 ± 1.1
303.58 K, 1570 kPa	160.11 ± 1.1
303.6 K, 8010 kPa	146.09 ± 1.1
303.6 K, 8490 kPa	146.2 ± 1.1
303.6 K, 10010 kPa	145.75 ± 1.1
303.61 K, 6980 kPa	146.66 ± 1.1
303.61 K, 7490 kPa	146.89 ± 1.1
303.61 K, 8980 kPa	145.75 ± 1.1
303.61 K, 9470 kPa	145.75 ± 1.1
303.67 K, 10990 kPa	144.49 ± 1.1
303.72 K, 3040 kPa	154.41 ± 1.1
303.72 K, 10520 kPa	144.95 ± 1.1
303.73 K, 5000 kPa	150.88 ± 1.1
303.74 K, 3530 kPa	154.18 ± 1.1
303.75 K, 4020 kPa	153.16 ± 1.1
303.75 K, 5520 kPa	150.19 ± 1.1
303.77 K, 6510 kPa	148.6 ± 1.1
303.79 K, 11450 kPa	144.03 ± 1.1
303.79 K, 12070 kPa	143.69 ± 1.1
303.8 K, 5980 kPa	148.82 ± 1.1
303.81 K, 4520 kPa	151.45 ± 1.1
313.61 K, 6020 kPa	154.3 ± 1.1
313.63 K, 5000 kPa	157.04 ± 1.1
313.64 K, 4490 kPa	158.18 ± 1.1
313.64 K, 7500 kPa	151.68 ± 1.1
313.64 K, 7980 kPa	151.11 ± 1.1
313.65 K, 8490 kPa	150.65 ± 1.1
313.66 K, 1510 kPa	166.04 ± 1.1
313.66 K, 4000 kPa	159.77 ± 1.1
313.66 K, 6990 kPa	152.82 ± 1.1
313.67 K, 2010 kPa	165.36 ± 1.1
313.69 K, 2510 kPa	165.02 ± 1.1
313.69 K, 3000 kPa	164.11 ± 1.1
313.69 K, 6500 kPa	153.96 ± 1.1
313.7 K, 9500 kPa	149.85 ± 1.1
313.7 K, 10010 kPa	149.51 ± 1.1
313.7 K, 11460 kPa	147.8 ± 1.1
313.72 K, 3510 kPa	162.62 ± 1.1
313.72 K, 8970 kPa	150.31 ± 1.1
313.72 K, 10500 kPa	148.94 ± 1.1
313.72 K, 10980 kPa	148.6 ± 1.1
313.72 K, 12040 kPa	147.46 ± 1.1
313.79 K, 5490 kPa	154.53 ± 1.1
323.62 K, 2020 kPa	170.26 ± 1.3
323.63 K, 6940 kPa	155.67 ± 1.1
323.64 K, 7520 kPa	154.98 ± 1.1
323.64 K, 8000 kPa	154.41 ± 1.1
323.64 K, 8510 kPa	153.73 ± 1.1
323.65 K, 2500 kPa	168.67 ± 1.1
323.65 K, 9540 kPa	152.25 ± 1.1
323.66 K, 8960 kPa	153.39 ± 1.1
323.66 K, 9990 kPa	152.02 ± 1.1
323.68 K, 3010 kPa	167.41 ± 1.1
323.68 K, 10980 kPa	151.11 ± 1.1
323.69 K, 3510 kPa	165.93 ± 1.1
323.69 K, 4520 kPa	162.51 ± 1.1
323.69 K, 6490 kPa	157.61 ± 1.1
323.69 K, 10530 kPa	151.79 ± 1.1
323.7 K, 11470 kPa	150.31 ± 1.1
323.71 K, 3990 kPa	164.79 ± 1.1
323.71 K, 5020 kPa	161.37 ± 1.1
323.71 K, 5500 kPa	159.89 ± 1.1
323.71 K, 5990 kPa	159.09 ± 1.1
323.73 K, 12010 kPa	150.08 ± 1.1
333.61 K, 5490 kPa	165.47 ± 1.1
333.63 K, 3000 kPa	179.5 ± 1.1
333.63 K, 5980 kPa	164.68 ± 1.1
333.66 K, 3480 kPa	177.56 ± 1.1
333.66 K, 4500 kPa	170.72 ± 1.1
333.66 K, 7020 kPa	161.71 ± 1.1
333.67 K, 2080 kPa	185.77 ± 1.1
333.68 K, 2520 kPa	183.95 ± 1.1
333.68 K, 5000 kPa	169.12 ± 1.1
333.68 K, 6510 kPa	162.74 ± 1.1
333.69 K, 7500 kPa	161.03 ± 1.1
333.69 K, 9010 kPa	159.09 ± 1.1
333.69 K, 9990 kPa	156.69 ± 1.1
333.71 K, 4040 kPa	175.4 ± 1.1
333.72 K, 8010 kPa	160.68 ± 1.1
333.72 K, 8500 kPa	159.66 ± 1.1
333.72 K, 9490 kPa	157.61 ± 1.1
333.79 K, 10520 kPa	155.21 ± 1.1
333.79 K, 11000 kPa	154.75 ± 1.1
333.82 K, 11480 kPa	154.07 ± 1.1
333.82 K, 12030 kPa	153.61 ± 1.1
343.67 K, 10510 kPa	157.83 ± 1.1
343.68 K, 2530 kPa	204.93 ± 1.3
343.68 K, 3510 kPa	187.26 ± 1.3
343.68 K, 11500 kPa	156.58 ± 1.1
343.69 K, 11060 kPa	156.92 ± 1.1
343.7 K, 4490 kPa	178.48 ± 1.1
343.7 K, 9470 kPa	159.89 ± 1.1
343.7 K, 12010 kPa	155.89 ± 1.1
343.71 K, 7000 kPa	165.47 ± 1.1
343.72 K, 6040 kPa	169.35 ± 1.1
343.73 K, 6510 kPa	168.55 ± 1.1
343.73 K, 7500 kPa	164.45 ± 1.1
343.73 K, 7980 kPa	163.76 ± 1.1
343.74 K, 3990 kPa	183.49 ± 1.1
343.75 K, 5020 kPa	175.74 ± 1.1
343.75 K, 10020 kPa	159.54 ± 1.1
343.77 K, 8520 kPa	163.19 ± 1.1
343.79 K, 3010 kPa	196.61 ± 1.3
343.8 K, 9010 kPa	162.51 ± 1.1
343.81 K, 5560 kPa	173.23 ± 1.1
353.69 K, 10520 kPa	163.99 ± 1.1
353.71 K, 6510 kPa	177.79 ± 1.1
353.71 K, 8500 kPa	169.24 ± 1.1
353.73 K, 4510 kPa	196.61 ± 1.4
353.73 K, 4990 kPa	190.11 ± 1.3
353.73 K, 5500 kPa	185.77 ± 1.1
353.73 K, 11010 kPa	162.85 ± 1.1
353.74 K, 8990 kPa	168.33 ± 1.1
353.75 K, 6990 kPa	175.97 ± 1.1
353.76 K, 11520 kPa	162.62 ± 1.1
353.77 K, 9530 kPa	166.96 ± 1.1
353.78 K, 6040 kPa	182.58 ± 1.1
353.78 K, 12010 kPa	161.94 ± 1.1
353.79 K, 7490 kPa	173.8 ± 1.1
353.79 K, 10010 kPa	165.93 ± 1.1
353.81 K, 7990 kPa	172.66 ± 1.1
363.69 K, 6030 kPa	189.42 ± 1.3
363.73 K, 10520 kPa	167.98 ± 1.1
363.74 K, 5480 kPa	198.2 ± 1.3
363.75 K, 4510 kPa	225 ± 2.3
363.75 K, 7990 kPa	175.85 ± 1.1
363.76 K, 7020 kPa	181.78 ± 1.1
363.76 K, 10010 kPa	169.12 ± 1.1
363.76 K, 11050 kPa	167.3 ± 1.1
363.77 K, 6500 kPa	186.46 ± 1.1
363.78 K, 4990 kPa	209.38 ± 1.5
363.78 K, 7530 kPa	178.7 ± 1.1
363.78 K, 8990 kPa	172.09 ± 1.1
363.78 K, 11500 kPa	166.96 ± 1.1
363.79 K, 8510 kPa	174.26 ± 1.1
363.8 K, 9490 kPa	171.06 ± 1.1
363.83 K, 12080 kPa	166.96 ± 1.1
373.09 K, 4510 kPa	297.19 ± 3.8
373.19 K, 4990 kPa	241.54 ± 2.7
373.24 K, 5480 kPa	217.82 ± 1.7
373.28 K, 5980 kPa	202.31 ± 1.4
373.3 K, 6490 kPa	191.25 ± 1.3
373.3 K, 7000 kPa	185.09 ± 1.3
373.3 K, 7520 kPa	180.3 ± 1.1
373.32 K, 8030 kPa	177.33 ± 1.1
373.32 K, 8510 kPa	174.94 ± 1.1
373.32 K, 8990 kPa	172.32 ± 1.1
373.34 K, 9510 kPa	171.52 ± 1.1
373.36 K, 9990 kPa	170.95 ± 1.1
373.38 K, 10530 kPa	169.58 ± 1.1
373.39 K, 11020 kPa	168.44 ± 1.1
373.4 K, 11510 kPa	167.87 ± 1.1
373.42 K, 11980 kPa	167.41 ± 1.1
